Patent US11040026B2, “Muscarinic M1 receptor positive allosteric modulators” (SUVEN LIFE SCIENCES LIMITED, priority 2016, dated 2021)
Structures can show the parent of a compound that is named as a salt.

Target: T1, muscarinic M1 receptor (Homo sapiens, UniProt P11229)
T1 sequence (P11229 1-460): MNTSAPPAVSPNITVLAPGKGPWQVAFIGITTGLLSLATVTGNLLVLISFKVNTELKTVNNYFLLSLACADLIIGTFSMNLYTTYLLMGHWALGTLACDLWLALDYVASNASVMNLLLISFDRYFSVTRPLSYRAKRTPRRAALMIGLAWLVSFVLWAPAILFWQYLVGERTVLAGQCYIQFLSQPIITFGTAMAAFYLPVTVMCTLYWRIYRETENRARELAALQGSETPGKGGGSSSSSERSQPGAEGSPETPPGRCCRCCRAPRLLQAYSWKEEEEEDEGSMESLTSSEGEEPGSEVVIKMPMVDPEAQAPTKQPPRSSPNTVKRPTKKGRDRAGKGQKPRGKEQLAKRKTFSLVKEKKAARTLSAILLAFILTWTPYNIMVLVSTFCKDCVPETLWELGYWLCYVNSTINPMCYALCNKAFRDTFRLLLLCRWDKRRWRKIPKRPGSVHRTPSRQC
Assay: Allosteric potency EC50 for muscarinic M1 receptor (CHO pCRE-Luc reporter assay)
Type: cell-based
Details: in presence of EC20 of acetylcholine; CHO cells, luciferase reporter, 4 hours
Method: Determination of Allosteric Potency EC50 Values for Muscarinic M1 Receptor:
A stable CHO cell line expressing recombinant human Muscarinic M1 receptor and pCRE-Luc reporter system was used for cell-based assay. The assay offers a non-radioactive based approach to determine binding of a compound to GPCRs. In this specific assay, the level of intracellular cyclic AMP which is modulated by activation or inhibition of the receptor is measured. The recombinant cells harbor luciferase reporter gene under the control of cyclic AMP response element.
The above cells were grown in 96 well clear bottom white plates in Hams F12 medium containing 10% fetal bovine serum (FBS). Prior to the addition of compounds or standard agonist, cells were serum starved overnight. Increasing concentrations of test compounds were added along with EC20 of acetylcholine in OptiMEM medium to the cells. The incubation was continued at 37° C. in CO2 incubator for 4 hours. Medium was removed and cells were washed with phosphate buffered saline. The cells were lysed and luciferase activity was measured in a Luminometer. Luminescence units were plotted against the compound concentrations using Graphpad software. EC50 values of the compounds were defined as the concentration required in stimulating the luciferase activity by 50% in presence of EC20 of acetylcholine and the results are provided in table 1.

| Structure (SMILES) | EC50 |
| --- | --- |
| Cn1ccc2c(Cc3ccc(F)cc3)cc(C(=O)N[C@@H]3CCOC[C@H]3O)nc21 (racemic) [Example 32, Racemic trans-N-(3-Hydroxytetrahydropyran-4-yl)-4-(4-fluorobenzyl)-1-methyl-1H-pyrrolo[2,3-b]pyridine-6-carboxamide] | 0.486 µM |
| Cn1ccc2c(Cc3ccc(F)cc3)cc(C(=O)N[C@@H]3CCOC[C@@H]3O)nc21 (racemic) [Example 35, Racemic cis-N-(3-Hydroxytetrahydropyran-4-yl)-4-(4-fluorobenzyl)-1-methyl-H-pyrrolo[2,3-b]pyridine-6-carboxamide] | 1.47 µM |
| Cn1ccc2c(Cc3ccnc(F)c3)cc(C(=O)NC3CCOCC3O)nc21 (single isomer, unassigned) [Example 38, Racemic trans-N-(3-Hydroxytetrahydropyran-4-yl)-4-(2-fluoropyridin-4-ylmethyl)-1-methyl-1H-pyrrolo[2,3-b]pyridine-6-carboxamide] | 0.983 µM |
| Cn1ccc2c(Cc3ccnc(F)c3)cc(C(=O)NC3CCOCC3O)nc21 (single isomer, unassigned) [Example 45, Racemic cis-N-(3-Hydroxytetrahydropyran-4-yl)-4-(2-fluoropyridin-4-ylmethyl)-1-methyl-1H-pyrrolo[2,3-b]pyridine-6-carboxamide] | 3.15 µM |
| Cn1ccc2c(Cc3ccc(F)cc3)cc(C(=O)N[C@H]3CCOC[C@H]3O)nc21 (single isomer, unassigned; isomer-i) [Example 36, cis-N-(3-Hydroxytetrahydropyran-4-yl)-4-(4-fluorobenzyl)-1-methyl-1H-pyrrolo[2,3-b]pyridine-6-carboxamide (Isomer-I)] | 3.17 µM |
| Cn1ccc2c(Cc3ccnc(F)c3)cc(C(=O)N[C@@H]3CCOC[C@H]3O)nc21 (single isomer, unassigned; isomer-i) [Example 39, trans-N-(3-Hydroxytetrahydropyran-4-yl)-4-(2-fluoropyridin-4-ylmethyl)-1-methyl-1H-pyrrolo[2,3-b]pyridine-6-carboxamide (Isomer-I)] | 0.968 µM |
| Cn1ccc2c(Cc3ccc(F)c(F)c3)cc(C(=O)N[C@H]3CCOC[C@H]3O)nc21 (single isomer, unassigned; isomer-i) [Example 41, cis-N-(3-Hydroxytetrahydropyran-4-yl)-4-(3,4-difluorobenzyl)-1-methyl-1H-pyrrolo[2,3-b]pyridine-6-carboxamide (Isomer-I)] | 1.23 µM |
| Cn1ccc2c(Cc3cccc(F)c3F)cc(C(=O)N[C@@H]3CCOC[C@H]3O)nc21 (single isomer, unassigned; isomer-i) [Example 43, trans-N-(3-Hydroxytetrahydropyran-4-yl)-4-(2,3-difluorobenzyl)-1-methyl-1H-pyrrolo[2,3-b]pyridine-6-carboxamide (Isomer-I)] | 2.53 µM |
| Cn1ccc2c(Cc3ccnc(F)c3)cc(C(=O)N[C@H]3CCOC[C@H]3O)nc21 (single isomer, unassigned; isomer-i) [Example 46, cis-N-(3-Hydroxytetrahydropyran-4-yl)-4-(2-fluoropyridin-4-ylmethyl)-1-methyl-1H-pyrrolo[2,3-b]pyridine-6-carboxamide (Isomer-I)] | 2.96 µM |
| Cn1ccc2c(Cc3ccc(Cl)nc3)cc(C(=O)N[C@H]3CCOC[C@H]3O)nc21 (single isomer, unassigned; isomer-i) [Example 49, cis-N-(3-Hydroxytetrahydropyran-4-yl)-4-(2-chloropyridin-5-ylmethyl)-1-methyl-1H-pyrrolo[2,3-b]pyridine-6-carboxamide (Isomer-I)] | 1.41 µM |
| Cn1ccc2c(Cc3ccc(F)cc3)cc(C(=O)N[C@H]3CCOC[C@H]3O)nc21 (single isomer, unassigned; isomer-ii) [Example 37, cis-N-(3-Hydroxytetrahydropyran-4-yl)-4-(4-fluorobenzyl)-1-methyl-1H-pyrrolo[2,3-b]pyridine-6-carboxamide (Isomer-II)] | 1.25 µM |
| Cn1ccc2c(Cc3ccnc(F)c3)cc(C(=O)N[C@@H]3CCOC[C@H]3O)nc21 (single isomer, unassigned; isomer-ii) [Example 40, trans-N-(3-Hydroxytetrahydropyran-4-yl)-4-(2-fluoropyridin-4-ylmethyl)-1-methyl-1H-pyrrolo[2,3-b]pyridine-6-carboxamide (Isomer-II)] | 0.755 µM |
| Cn1ccc2c(Cc3ccc(F)c(F)c3)cc(C(=O)N[C@H]3CCOC[C@H]3O)nc21 (single isomer, unassigned; isomer-ii) [Example 42, cis-N-(3-Hydroxytetrahydropyran-4-yl)-4-(3,4-difluorobenzyl)-1-methyl-1H-pyrrolo[2,3-b]pyridine-6-carboxamide (Isomer-II)] | 2.29 µM |
| Cn1ccc2c(Cc3cccc(F)c3F)cc(C(=O)N[C@@H]3CCOC[C@H]3O)nc21 (single isomer, unassigned; isomer-ii) [Example 44, trans-N-(3-Hydroxytetrahydropyran-4-yl)-4-(2,3-difluorobenzyl)-1-methyl-1H-pyrrolo[2,3-b]pyridine-6-carboxamide (Isomer-II)] | 0.748 µM |

The next lines start with the values.

| EC50 | Structure (SMILES) |
| --- | --- |
| 0.031 µM | Cn1ccc2c(Cc3ccc(-c4cscn4)cc3)cc(C(=O)NC3CCOCC3O)nc21 (racemic) [Example 53, Racemic trans-N-(3-Hydroxytetrahydropyran-4-yl)-4-[4-(thiazol-4-yl)benzyl]-1-methyl-1H-pyrrolo[2,3-b]pyridine-6-carboxamide] |
| 0.038 µM | Cn1cc(-c2ccc(Cc3cc(C(=O)NC4CCOCC4O)nc4c3ccn4C)cc2)cn1 (racemic) [Example 56, Racemic trans-N-(3-Hydroxytetrahydropyran-4-yl)-4-[4-(1-methyl-1H-pyrazol-4-yl)benzyl]-1-methyl-1H-pyrrolo[2,3-b]pyridine-6-carboxamide] |
| 0.136 µM | O=C(N[C@@H]1CCOC[C@H]1O)c1cc(Cc2ccc(F)cc2)c2c(n1)OCCO2 (single isomer, unassigned) [Example 113, trans-N-(3-Hydroxytetrahydropyran-4-yl)-8-(4-fluorobenzyl)-2,3-dihydro-[1,4]dioxino[2,3-b]pyridine-6-carboxamide (Isomer-IT)] |
| 1.82 µM | Cn1ccc2c(Cc3ccc(F)c(F)c3)cc(C(=O)N[C@@H]3CCOC[C@H]3O)nc21 (single isomer, unassigned; isomer-i) [Example 51, trans-N-(3-Hydroxytetrahydropyran-4-yl)-4-(3,4-difluorobenzyl)-1-methyl-1H-pyrrolo[2,3-b]pyridine-6-carboxamide (Isomer-I)] |
| 0.764 µM | Cn1ccc2c(Cc3ccc(-c4cscn4)cc3)cc(C(=O)N[C@@H]3CCOC[C@H]3O)nc21 (single isomer, unassigned; isomer-i) [Example 54, trans-N-(3-Hydroxytetrahydropyran-4-yl)-4-[4-(thiazol-4-yl)benzyl]-1-methyl-1H-pyrrolo[2,3-b]pyridine-6-carboxamide (Isomer-I)] |
| 2.92 µM | Cn1ccc2c(Cc3ccc(Cl)nc3)cc(C(=O)N[C@H]3CCOC[C@H]3O)nc21 (single isomer, unassigned; isomer-ii) [Example 50, cis-N-(3-Hydroxytetrahydropyran-4-yl)-4-(2-chloropyridin-5-ylmethyl)-1-methyl-1H-pyrrolo[2,3-b]pyridine-6-carboxamide (Isomer-II)] |
| 0.032 µM | Cn1ccc2c(Cc3ccc(-c4cscn4)cc3)cc(C(=O)N[C@@H]3CCOC[C@H]3O)nc21 (single isomer, unassigned; isomer-ii) [Example 55, trans-N-(3-Hydroxytetrahydropyran-4-yl)-4-[4-(thiazol-4-yl)benzyl]-1-methyl-1H-pyrrolo[2,3-b]pyridine-6-carboxamide (Isomer-II)] |
| 0.222 µM | COc1ccc(Cc2cc(C(=O)N[C@@H]3CCOC[C@H]3O)nc3c2ccn3C)cc1 (single isomer, unassigned; isomer-ii) [Example 61, trans-N-(3-Hydroxytetrahydropyran-4-yl)-4-(4-methoxybenzyl)-1-methyl-1H-pyrrolo[2,3-b]pyridine-6-carboxamide (Isomer-II)] |
| 0.006 µM | O=C(N[C@@H]1CCOC[C@H]1O)c1cc(Cc2ccc(-c3cscn3)cc2)c2c(n1)CNCC2 (single isomer, unassigned; isomer-ii) [Example 97, trans-N-(3-Hydroxytetrahydropyran-4-yl)-4-[4-(thiazol-4-yl)benzyl]-5,6,7,8-tetrahydro[1,7]naphthyridine-2-carboxamide Hydrochloride (Isomer-II)] |
| 0.109 µM | O=C(N[C@@H]1CCOC[C@H]1O)c1cc(Cc2ccc(F)cc2)c2c(n1)CNCC2 (single isomer, unassigned; isomer-ii) [Example 98, trans-N-(3-Hydroxytetrahydropyran-4-yl)-4-(4-fluorobenzyl)-5,6,7,8-tetrahydro[1,7]naphthyridine-2-carboxamide Hydrochloride (Isomer-II)] |
